Results published in PubChem BioAssay AID1963969 (Molecular Pharmacology Branch, DTP, NCI, 2024).

Tested on: 817829-284-R-J1-PDC multi-cell spheroid viability
Test: Anticancer human tumor 817829-284-R-J1-PDC patient-derived colon adenocarcinoma cell line growth inhibition [PI3K]
Details: for IC50: curve of first compound; for viability, T/C: stronger effect = lower value
In short: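 Viability of mixed-cell spheroids was determined after exposure to pairwise combinations, one partner being inavolisib, alpelisib, duvelisib or copanlisib. Highest tested concentration matched clinical Cmax where known and 10 microM where not, descending in half-log steps.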

[1] = second compound 0.00316 µM, first compound 0.0316 µM
[2] = second compound 0.00316 µM, first compound 0.1 µM
[3] = second compound 0.00316 µM, first compound 0.316 µM
[4] = second compound 0.00316 µM, first compound 1 µM
[5] = second compound 0.00316 µM, first compound 3.16 µM
[6] = second compound 0.00316 µM, first compound 10 µM
[7] = second compound 0.01 µM, first compound 0.0316 µM
[8] = second compound 0.01 µM, first compound 0.1 µM
[9] = second compound 0.01 µM, first compound 0.316 µM
[10] = second compound 0.01 µM, first compound 1 µM
[11] = second compound 0.01 µM, first compound 3.16 µM
[12] = second compound 0.01 µM, first compound 10 µM
[13] = second compound 0.0316 µM, first compound 0.0316 µM
[14] = second compound 0.0316 µM, first compound 0.1 µM
[15] = second compound 0.0316 µM, first compound 0.316 µM
[16] = second compound 0.0316 µM, first compound 1 µM
[17] = second compound 0.0316 µM, first compound 3.16 µM
[18] = second compound 0.0316 µM, first compound 10 µM
[19] = second compound 0.1 µM, first compound 0.0316 µM
[20] = second compound 0.1 µM, first compound 0.1 µM
[21] = second compound 0.1 µM, first compound 0.316 µM
[22] = second compound 0.1 µM, first compound 1 µM
[23] = second compound 0.1 µM, first compound 3.16 µM
[24] = second compound 0.1 µM, first compound 10 µM
[25] = second compound 0.316 µM, first compound 0.0316 µM
[26] = second compound 0.316 µM, first compound 0.1 µM
[27] = second compound 0.316 µM, first compound 0.316 µM
[28] = second compound 0.316 µM, first compound 1 µM
[29] = second compound 0.316 µM, first compound 3.16 µM
[30] = second compound 0.316 µM, first compound 10 µM
[31] = second compound 1 µM, first compound 0.0316 µM
[32] = second compound 1 µM, first compound 0.1 µM
[33] = second compound 1 µM, first compound 0.316 µM
[34] = second compound 1 µM, first compound 1 µM
[35] = second compound 1 µM, first compound 3.16 µM
[36] = second compound 1 µM, first compound 10 µM
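Note: spheroids exposed to agents for seven days before readout.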
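Throughout, for viability, T/C: percent of vehicle DMSO control viability which is 100%.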

With `CC(C)NCC(C(=O)N1CCN(c2ncnc3c2C(C)CC3O)CC1)c1ccc(Cl)cc1` (centres undefined) + COc1c(OCCCN2CCOCC2)ccc2c3n(c(=NC(=O)c4cnc(N)nc4)nc12)CCN3 the IC50 (second compound 0.00316 µM) was 230 nM, the IC50 (second compound 0.01 µM) was 88.4 nM and the IC50 (second compound 0.0316 µM) was 76.7 nM. The IC50 (second compound 0.1 µM) was less than 31.6 nM, the IC50 (second compound 0.316 µM) was less than 31.6 nM and the IC50 (second compound 1 µM) was less than 31.6 nM. It also gave a viability, T/C [1] of 78.3%, a viability, T/C [2] of 51.8% and a viability, T/C [3] of 54.5%. The viability, T/C [4] was 30.8%, the viability, T/C [5] was 23% and the viability, T/C [6] was 15.1%. For the same compound, the viability, T/C [7] was 65%, the viability, T/C [8] was 49.1% and the viability, T/C [9] was 24.8%. It also gave a viability, T/C [10] of 21.6%, a viability, T/C [11] of 21.2% and a viability, T/C [12] of 10.2%. The viability, T/C [13] was 72.6%, the viability, T/C [14] was 40.6% and the viability, T/C [15] was 29.9%. The viability, T/C [16] was 21.4%, the viability, T/C [17] was 22.9% and the viability, T/C [18] was 9.33%. It also gave a viability, T/C [19] of 40.7%, a viability, T/C [20] of 23.7% and a viability, T/C [21] of 26.5%. For the same compound, the viability, T/C [22] was 15.4%, the viability, T/C [23] was 13.4% and the viability, T/C [24] was 8.69%. It also gave a viability, T/C [25] of 20%, a viability, T/C [26] of 19.8% and a viability, T/C [27] of 23.6%. For the same compound, the viability, T/C [28] was 16.6%, the viability, T/C [29] was 8.4% and the viability, T/C [30] was 7.04%. The viability, T/C [31] was 12.4%, the viability, T/C [32] was 12.3% and the viability, T/C [33] was 13.2%. It also gave a viability, T/C [34] of 10%, a viability, T/C [35] of 6.2% and a viability, T/C [36] of 5%.
For `CC(Cn1ccc(-c2ccc(C#N)c(Cl)c2)n1)NC(=O)c1cc(C(C)O)[nH]n1` (centres undefined) + COc1c(OCCCN2CCOCC2)ccc2c3n(c(=NC(=O)c4cnc(N)nc4)nc12)CCN3, the IC50 (second compound 0.00316 µM) was greater than 10000 nM, the IC50 (second compound 0.01 µM) was 6450 nM and the IC50 (second compound 0.0316 µM) was 5820 nM. It also gave an IC50 (second compound 0.1 µM) of less than 31.6 nM, an IC50 (second compound 0.316 µM) of less than 31.6 nM and an IC50 (second compound 1 µM) of less than 31.6 nM. The viability, T/C [1] was 70.6%, the viability, T/C [2] was 101% and the viability, T/C [3] was 101%. It also gave a viability, T/C [4] of 97.5%, a viability, T/C [5] of 64.5% and a viability, T/C [6] of 73.9%. For the same compound, the viability, T/C [7] was 59.5%, the viability, T/C [8] was 87.1% and the viability, T/C [9] was 98.8%. It also gave a viability, T/C [10] of 57.1%, a viability, T/C [11] of 71.1% and a viability, T/C [12] of 39.4%. It also gave a viability, T/C [13] of 50.8%, a viability, T/C [14] of 61.7% and a viability, T/C [15] of 61.4%. It also gave a viability, T/C [16] of 67.5%, a viability, T/C [17] of 54.6% and a viability, T/C [18] of 36.4%. For the same compound, the viability, T/C [19] was 48.2%, the viability, T/C [20] was 30.8% and the viability, T/C [21] was 30.2%. It also gave a viability, T/C [22] of 38.1%, a viability, T/C [23] of 33.2% and a viability, T/C [24] of 26.8%. The viability, T/C [25] was 20.2%, the viability, T/C [26] was 21.3% and the viability, T/C [27] was 23.6%. For the same compound, the viability, T/C [28] was 20.5%, the viability, T/C [29] was 24.4% and the viability, T/C [30] was 20.8%. It also gave a viability, T/C [31] of 12.9%, a viability, T/C [32] of 7.86% and a viability, T/C [33] of 10.6%. The viability, T/C [34] was 9.64%, the viability, T/C [35] was 9.96% and the viability, T/C [36] was 10.4%.
